By IC50 is commonly meant the concentration at which inhibition is half-maximal. A higher IC50 goes with lower potency.

No end group written: not given here.

The values that follow come from publication PMC3406249 (Hepatology (Baltimore, Md.), 2012).

Data set [1] has as its system HCVpp (H77). The note with it: 50% cell culture inhibitory concentration, HCVpp entry; mean ± SD.
For data set [2] the following is noted: MTT assay; estimated.
In data set [3] the test system is JFH-1 HCVcc. The following applies: 12 h.

Sequence GAIVSTALPQWRIYSYAG [CL58.6] had an IC50 in data set [1] of 23.8 ± 2.1 µM. MANAGLQLLGFILAFLGW [CL58]: the “50% cytotoxic concentration relative to IC50” value in data set [2] is approximately 100 fold. In addition, the IC50 in data set [3] is 2 µM.
